Tests used:
AChE [1] = molecular target: T1, AChE (Electrophorus electricus, UniProt O42275); test: AChE inhibition kinetics (Lineweaver–Burk and secondary plots); assay type: biochemical
AChE [2] = molecular target: T1, AChE; test: AChE inhibition assay (Ellman method, ATCI); assay type: biochemical; details: mean ± SD
Method: (§1) For measuring cholinesterase (ChE) activity, the Ellman method was employed with a slight modification. The AChE and BchE with ~0.02 U/mL were reacted with 0.5 mM ATCI and BTCI, respectively, followed by addition of 0.5 mM DTNB. […] In the inhibition assay, the enzyme and the compound were preincubated in reaction buffer for 15 min, followed by adding substrates and DTNB.

MAO-B [3] = molecular target: T2, MAO-B (Homo sapiens, UniProt P27338); test: Reversibility test for MAO-B using dialysis method; assay type: biochemical; details: for Residual activity of MAO-B after dialysis: after dialysis for 6 h, inhibitor at ~2 × IC50
T2 construct: purchased Sigma Aldrich
T2 sequence (P27338 1-520): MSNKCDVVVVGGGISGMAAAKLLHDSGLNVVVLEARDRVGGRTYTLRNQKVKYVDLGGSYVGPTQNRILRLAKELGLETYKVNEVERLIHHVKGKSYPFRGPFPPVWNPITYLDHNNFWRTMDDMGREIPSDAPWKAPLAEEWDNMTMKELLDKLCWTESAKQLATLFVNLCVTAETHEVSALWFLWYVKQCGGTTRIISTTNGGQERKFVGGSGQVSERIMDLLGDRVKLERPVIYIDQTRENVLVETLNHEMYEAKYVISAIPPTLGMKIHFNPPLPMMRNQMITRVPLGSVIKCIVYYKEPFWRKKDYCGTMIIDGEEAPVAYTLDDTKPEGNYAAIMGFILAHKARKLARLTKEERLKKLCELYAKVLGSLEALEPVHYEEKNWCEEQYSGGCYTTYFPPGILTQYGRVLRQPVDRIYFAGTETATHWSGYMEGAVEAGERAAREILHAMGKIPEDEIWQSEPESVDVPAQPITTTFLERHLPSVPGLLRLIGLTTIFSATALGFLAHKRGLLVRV
Method: Reversibility of the compounds for MAO-B was measured using the dialysis method. […] The reaction mixture was placed in a dialysis tube (DiaEasyTM Dialyzer (800 µL) MWCO 6–8 kDa, Biovision, CA, USA) and dialyzed for 6 h. After that, the 0.3 mM of benzylamine was added into the reaction mixture for measuring enzyme activity. The relative activity to the control (without inhibitors) before and after dialysis was calculated, respectively.

[4] = Cytotoxicity MTT assay on normal Vero cells; details: African green monkey
Method: The reference compound staurosporine was purchased from Sigma-Aldrich (Saint Louis, MO, USA). […] CellTiter 96® Non-Radioactive Cell Proliferation Assay (MTT) reagent was purchased from Promega (Cat# G4000). The normal Vero cell line was purchased from ATCC. Normal Vero cells were cultured with EMEM medium plus 10% FBS. In total, 100 µg/mL penicillin and 100 µg/mL streptomycin were added to the culture media.
The test compounds (100 nL) and staurosporine (25 nL) were delivered from the source plate to the wells of 384-well cell culture plates by Echo 550 Liquid Handler. […] MTT Dye Solution (8 µL) was added to each well, and the plates were incubated at 37 °C in a CO2 incubator for 6 h. After incubation, the formazan was produced in the cells. Solubilization/Stop Solution (30 µL) was added to each well and the plates were incubated for another 1 h at 37 °C in a CO2 incubator to dissolve the formazan crystals. […] The IC50 curves were plotted, and the IC50 values were calculated using the GraphPad Prism 4 program based on a sigmoidal dose–response equation.

MAO-A = molecular target: T3, MAO-A (Homo sapiens, UniProt P21397); test: MAO-A enzyme inhibition assay (kynuramine substrate); assay type: biochemical; details: mean ± SD
T3 construct: purchased Sigma Aldrich
T3 sequence (P21397 1-527): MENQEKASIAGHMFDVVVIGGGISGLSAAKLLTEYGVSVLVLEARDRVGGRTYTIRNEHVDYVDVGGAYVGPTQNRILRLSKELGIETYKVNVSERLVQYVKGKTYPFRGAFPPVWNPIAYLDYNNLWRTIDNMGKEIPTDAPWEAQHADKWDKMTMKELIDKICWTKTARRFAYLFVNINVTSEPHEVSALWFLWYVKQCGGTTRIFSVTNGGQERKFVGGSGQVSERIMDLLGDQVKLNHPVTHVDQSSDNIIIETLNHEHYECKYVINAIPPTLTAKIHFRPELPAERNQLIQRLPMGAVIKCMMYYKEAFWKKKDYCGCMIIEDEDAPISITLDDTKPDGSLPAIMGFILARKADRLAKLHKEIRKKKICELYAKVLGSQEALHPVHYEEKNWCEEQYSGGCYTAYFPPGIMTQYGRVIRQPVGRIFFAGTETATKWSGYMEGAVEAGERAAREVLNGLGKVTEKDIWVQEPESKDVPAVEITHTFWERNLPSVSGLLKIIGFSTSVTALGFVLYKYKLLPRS
Method: MAO assays were performed as described previously, i.e., ~0.09 U/mL of MAO-A and MAO-B were reacted with 0.06 mM kynuramine and 0.3 mM benzylamine, respectively, in 50 mM sodium phosphate (pH 7.2). […] For inhibition assay, the compounds were dissolved in DMSO and added into the reaction mixture. The final concentration of DMSO in the reaction mixture was less than 1% to avoid solvent disturbance.

BChE = BChE (Equus caballus, UniProt P81908); test: biochemical
BChE, sequence (P81908 whole entry): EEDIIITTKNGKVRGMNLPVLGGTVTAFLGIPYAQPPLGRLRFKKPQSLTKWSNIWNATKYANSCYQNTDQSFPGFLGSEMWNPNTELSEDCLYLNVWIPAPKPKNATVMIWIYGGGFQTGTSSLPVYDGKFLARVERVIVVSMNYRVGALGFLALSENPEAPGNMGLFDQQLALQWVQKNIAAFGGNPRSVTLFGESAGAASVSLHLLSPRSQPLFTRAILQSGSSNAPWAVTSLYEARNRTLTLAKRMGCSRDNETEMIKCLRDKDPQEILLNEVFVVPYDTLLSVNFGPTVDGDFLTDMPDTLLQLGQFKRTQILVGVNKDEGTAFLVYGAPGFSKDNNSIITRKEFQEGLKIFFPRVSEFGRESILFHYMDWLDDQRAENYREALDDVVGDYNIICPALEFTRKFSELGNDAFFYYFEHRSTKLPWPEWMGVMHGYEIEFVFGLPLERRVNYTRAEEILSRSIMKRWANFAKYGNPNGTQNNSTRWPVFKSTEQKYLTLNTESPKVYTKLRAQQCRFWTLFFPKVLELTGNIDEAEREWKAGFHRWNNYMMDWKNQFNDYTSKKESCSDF
Method: as §1

AChE [5] = molecular target: T1, AChE; details: read-out: Ki AChE; morpholine-based chalcones; cited from earlier work
MAO-B [6] = molecular target: T2, MAO-B; details: MAO-B selectivity over MAO-A; cited from earlier work
[7] = read-out: Residual activity of MAO-B before dialysis

T1 sequence (O42275 24-633): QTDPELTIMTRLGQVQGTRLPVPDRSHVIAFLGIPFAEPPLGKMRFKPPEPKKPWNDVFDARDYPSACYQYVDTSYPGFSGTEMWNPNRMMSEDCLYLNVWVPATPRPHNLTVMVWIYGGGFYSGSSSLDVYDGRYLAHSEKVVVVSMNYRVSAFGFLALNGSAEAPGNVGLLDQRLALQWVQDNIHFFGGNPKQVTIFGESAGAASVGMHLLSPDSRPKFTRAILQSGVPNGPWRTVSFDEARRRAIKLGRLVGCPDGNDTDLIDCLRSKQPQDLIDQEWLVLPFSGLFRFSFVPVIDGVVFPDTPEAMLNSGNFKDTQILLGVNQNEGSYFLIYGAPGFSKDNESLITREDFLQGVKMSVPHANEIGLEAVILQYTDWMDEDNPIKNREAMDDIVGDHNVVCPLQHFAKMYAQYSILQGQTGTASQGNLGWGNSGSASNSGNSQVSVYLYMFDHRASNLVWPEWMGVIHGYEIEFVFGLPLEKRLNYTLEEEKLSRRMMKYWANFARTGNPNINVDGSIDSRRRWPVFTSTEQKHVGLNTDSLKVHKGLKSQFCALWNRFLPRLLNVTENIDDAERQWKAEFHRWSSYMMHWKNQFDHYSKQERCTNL

CN1CCN(c2ccc(C(=O)/C=C/c3ccc(F)c(C(F)(F)F)c3)cc2)CC1 [Compound 2k, (E)-3-(4-fluoro-3-(trifluoromethyl)phenyl)-1-(4-(4-methylpiperazin-1-yl)phenyl)prop-2-en-1-one]
Inhibition pattern for AChE (AChE [1]): mixed type | remaining activity at 10 µM (AChE [2]; 10 μM compound, read-out: Residual Activities at 10 μM (%) AChE): 46.9 ± 2.58% | Residual activity of MAO-B after dialysis (MAO-B [3]): 80.26% | Reversibility of MAO-B inhibition (MAO-B [3]; dialysis method): reversible | remaining activity at 1.16 µM (MAO-B [3]; [7]): 14.6% | IC50 at 72 h [4]: 19.9 µM | remaining activity at 10 µM (MAO-A; 10 μM compound, read-out: Residual Activities at 10 μM (%) MAO-A): 96.4 ± 3.03% | IC50 (MAO-A): > 40 µM | remaining activity at 10 µM (BChE; read-out: Residual Activities at 10 μM (%) BChE): 61.8 ± 5.54%

CN1CCN(c2ccc(C(=O)/C=C/c3cc(Br)ccc3F)cc2)CC1 [Compound 2n, (E)-3-(5-bromo-2-fluorophenyl)-1-(4-(4-methylpiperazin-1-yl)phenyl)prop-2-en-1-one]
Inhibition pattern for AChE (AChE [1]): mixed type | IC50 (AChE [2]): 4.32 ± 0.39 µM | IC50 at 72 h [4]: 62 µM | Residual Activities at 10 μM (%) BChE (BChE; 10 μM compound, mean ± SD): 43.21 ± 2.88%

NCCNC(=O)c1ccc(Cl)cn1 [Lazabemide, reference compound]
Residual activity of MAO-B after dialysis (MAO-B [3]): 98.78% | remaining activity at 0.22 µM (MAO-B [3]; [7]): 20.5%

CN(C)c1ccc(/C=C/C(=O)c2ccc(N3CCOCC3)cc2)cc1 [MO5]
Ki (AChE [5]): 2.52 µM

O=C(/C=C/c1ccc(Br)cc1)c1ccc(N2CCOCC2)cc1 [MO9]
Ki (AChE [5]): 7.04 µM

O=C(/C=C/c1ccc(F)cc1)c1ccc(N2CCNCC2)cc1 [PC10]
SI (MAO) (MAO-B [6]): 48.3

O=C(/C=C/c1ccc(C(F)(F)F)cc1)c1ccc(N2CCNCC2)cc1 [PC11]
SI (MAO) (MAO-B [6]): 49.2

C#CCN(C)Cc1ccccc1 [Pargyline, reference compound]
Residual activity of MAO-B after dialysis (MAO-B [3]): 24.88%

Reference: PMC9860728, “Identification of New N-methyl-piperazine Chalcones as Dual MAO-B/AChE Inhibitors” (Pharmaceuticals, 2023)
